Legend:
Assay type in all cases: cell-based
[1] = tested on: RAW 264.7 macrophages; test: MTT cell viability assay; conditions: 12.5 to 200 μM, 3 h of exposure
Experimental: RAW 264.7 cells were plated (5 × 10^4 cells/well) in a 96-well plate with DMEM and 10% FBS. When cells reached 90% confluence, the 10% (v/v) FBS DMEM was discarded and replaced with the stimuli. […] The metabolism of MTT by the cells was monitored by the formation of insoluble salts, which were then dissolved in isopropyl alcohol. Absorbance was read at 570 nm using a Varioskan LUX (ThermoFisher Scientific, Waltham, MA, USA). […] Cell viability was normalized in all groups by the control (1% (v/v) FBS DMEM), with 10% (v/v) FBS in DMEM used as the positive growth control.

[2] = tested on: ICAM-1; test: Western blotting, ICAM-1 expression; conditions: RAW 264.7, 200 μM following CSE 5% exposure
Experimental: (§1) The RAW 264.7 macrophage cell lines were cultured in DMEM supplemented with 10% (v/v) FBS, pH 7.2, at 37 °C in a humidified atmosphere with 5% CO2. RAW 264.7 cells were plated in a 24-well plate (3.5 × 10^5 cells/well) in DMEM with 1% (v/v) FBS and left overnight to adhere. […]
(§2) Cells were lysed in RIPA buffer containing […]™ Protease Inhibitor and 1 mM sodium orthovanadate. Samples were then analyzed using the bicinchoninic acid (BCA) method (BCA Protein Assay Kit). Standard curves with known albumin concentrations (0–2 mg/mL) were used. The working solution was prepared according to the manufacturer’s instructions. For protein quantification, 10 μL of the sample was mixed with 100 μL of the working solution, and the same procedure was performed for each point on the standard curve in a 96-well plate. […] Absorbance was read at 565 nm using a Varioskan LUX spectrophotometer (ThermoFisher Scientific, Waltham, MA, USA).
(§3) Cell lysates (10–20 μg of protein) were separated by SDS-PAGE (sodium dodecyl sulfate polyacrylamide gel for electrophoresis) (8 or 12% polyacrylamide) and transferred (25 V, 1.0 A, 30 min—Trans-Blot Turbo Transfer System, Bio-Rad—São Paulo, Brazil) to a PVDF membrane. […] Densitometry was quantified using ImageJ software v. […] Results are expressed as densitometric values for each protein normalized to β-actin.

[3] = tested on: HDAC6; test: Western blotting, HDAC6 expression; conditions: RAW 264.7, increase by CSE 5%
Experimental: The RAW 264.7 macrophage cell lines were cultured in DMEM supplemented with 10% (v/v) FBS, pH 7.2, at 37 °C in a humidified atmosphere with 5% CO2. RAW 264.7 cells were plated in a 24-well plate (3.5 × 10^5 cells/well) in DMEM with 1% (v/v) FBS and left overnight to adhere. […] After incubation, the medium was removed, and a 100 μM solution of bixin or potassium bixinate (diluted in DMEM; bixin was first prepared as a stock solution in DMSO) was added for an additional 1 h.
Cells were lysed in RIPA buffer containing […]™ Protease Inhibitor and 1 mM sodium orthovanadate. Samples were then analyzed using the bicinchoninic acid (BCA) method (BCA Protein Assay Kit). […] For protein quantification, 10 μL of the sample was mixed with 100 μL of the working solution, and the same procedure was performed for each point on the standard curve in a 96-well plate. […] Absorbance was read at 565 nm using a Varioskan LUX spectrophotometer (ThermoFisher Scientific, Waltham, MA, USA).
as §3

[4] = tested on: F-actin in RAW 264.7 cells; test: F-actin polymerization assay; conditions: 200 μM, alone and in the presence of 5% CSE
Experimental: RAW 264.7 cells were seeded in a 24-well plate (2.5 × 10^5 cells/well) and stimulated as previously described. After reaching 70% confluence, cells were blocked with 5% (w/v) BSA for 1 h and washed three times in PBS-Tween 20 (0.1% (v/v)). The supernatants were replaced with ActinRed (ThermoFisher Scientific, Waltham, MA, USA) for 30 min, followed by washing and incubation with DAPI for 5 min. After the final wash, DMEM FluoroBrite was added, and fluorescence was analyzed using the EVOS inverted microscope (ThermoFisher Scientific, Waltham, MA, USA).

[5] = tested on: RAW 264.7 cells; test: Wound healing migration assay; conditions: 24 h, mitomycin C pretreated; for cell migration (wound closure), compound alone: 200 μM, no stimulus; for cell migration induced by CSE: CSE 5% plus compound
Experimental: RAW 264.7 cells were seeded in a 24-well plate (4.0 × 10^5 cells/well) and cultured until maximum confluence. Cells were then treated with mitomycin C (5 μg/mL) in FBS-free DMEM for 2 h, followed by washing with PBS. A linear scratch was made with a 200 μL pipette tip in each well. Cells were then stimulated for 24 h with the stimuli diluted in DMEM supplemented with 1% (v/v) FBS. Wound closure was monitored by capturing images at 0 and 24 h. The area of wound closure in each image was measured at five different points using a ruler tool, and an average was calculated for each image and condition. Cell migration was quantified as the percentage of wound closure at 24 h compared to the area at 0 h for each group.

[6] = tested on: NOS2; test: Western blotting, NOS2 expression; conditions: RAW 264.7, 200 μM, CSE 5%
Experimental: as §1, §2, §3

[7] = tested on: RAW 264.7 cells; test: ROS scavenger activity assay (NBT), LPS-induced; conditions: for ROS production induced by LPS: LPS 10 μg/mL, 12.5–200 μM, effect starting from 100 µM
Experimental: ROS levels were determined using the NBT method. RAW 264.7 cells were incubated for 1 h with 10 μg/mL LPS and different concentrations of bixin or potassium bixinate (0–200 μM) to evaluate their ability to intercept superoxide anions induced by LPS. After incubation, a 10% (w/v) NBT solution was added to each well and incubated for 1 h at 37 °C. Cellular membranes were permeabilized with 2 M KOH, and the resulting formazan was solubilized in DMSO. Optical density (OD) was measured at 630 nm using a Varioskan LUX spectrophotometer (ThermoFisher Scientific, Waltham, MA, USA).

Row | Compound | cell viability [1] | ICAM-1 expression (ICAM-1/β-actin) [2] | HDAC6 expression (HDAC6/β-actin) [3] | F-actin labeling (MFI) [4] | cell migration (wound closure), compound alone [5] | cell migration induced by CSE [5] | NOS2 expression (NOS2/β-actin) [6] | ROS production induced by LPS [7] | potency to intercept ROS formation relative to bixin ([7]; in vitro, KBx versus bixin)
1 | COC(=O)/C=C/C(C)=C\C=C\C(C)=C\C=C\C=C(C)\C=C\C=C(C)\C=C\C(=O)O [HBx, (2E,4E,6E,8E,10E,12E,14E,16Z,18E)-20-methoxy-4,8,13,17-tetramethyl-20-oxoicosa-2,4,6,8,10,12,14,16,18-nonaenoic acid] | did not affect cell viability | reduced ICAM-1 expression | effective in reducing it | maintained F-actin at control levels | no migration occurred | completely inhibited | reduced it | dose-dependent reduction in ROS production | –
2 | potassium bixinate [KBx] | did not affect cell viability | reduced ICAM-1 expression | effective in reducing it | maintained F-actin at control levels | no migration occurred | completely inhibited | reduced it | dose-dependent reduction in ROS production | three-fold more potency

— paper PMC12030059, “Mechanistic Advances in the Therapeutic Application of Bixin for Lung Inflammation In Vitro and In Vivo” (Pharmaceuticals, 2025)
